In ChEMBL document CHEMBL2203083, “Facile synthesis and anticancer activity of C-10 non-acetal deoxoartemisinin dimers” (Bioorg Med Chem Lett, 2012):
pIC50: −log10 of the molar value.

tested on: Caco-2; experiment: Cytotoxicity against human Caco2 cells assessed as cell viability after 48 hrs by MTT assay; assay type: functional, cell-based; settings: Caco-2, 48 h

Row | SMILES | pIC50
1 | C[C@H]1[C@@H](CC(=O)N(CCNC(=O)[C@@H](N)CCCCN)CC(=O)NCCN(CC(=O)OC(C)(C)C)C(=O)C[C@H]2O[C@@H]3O[C@@]4(C)CC[C@H]5[C@H](C)CC[C@@H]([C@H]2C)[C@@]35OO4)O[C@@H]2O[C@@]3(C)CC[C@H]4[C@H](C)CC[C@@H]1[C@@]24OO3 | 5.45
2 | C[C@H]1[C@@H](CC(=O)N(CCNC(=O)OCC2c3ccccc3-c3ccccc32)CC(=O)OC(C)(C)C)O[C@@H]2O[C@@]3(C)CC[C@H]4[C@H](C)CC[C@@H]1[C@@]24OO3 | 5.27
3 | C[C@H]1[C@@H](CC(=O)N(CCNC(=O)[C@H](CCCCNC(=O)OC(C)(C)C)NC(=O)OCC2c3ccccc3-c3ccccc32)CC(=O)OC(C)(C)C)O[C@@H]2O[C@@]3(C)CC[C@H]4[C@H](C)CC[C@@H]1[C@@]24OO3 | 4.92
4 | C[C@H]1[C@@H](CC(=O)N(CCNC(=O)[C@H](CCCCN)NC(=O)OCC2c3ccccc3-c3ccccc32)CC(=O)OC(C)(C)C)O[C@@H]2O[C@@]3(C)CC[C@H]4[C@H](C)CC[C@@H]1[C@@]24OO3 | 5.36
5 | C[C@H]1[C@@H](CC(=O)N(CCNC(=O)[C@@H](N)CCCCN)CC(=O)OC(C)(C)C)O[C@@H]2O[C@@]3(C)CC[C@H]4[C@H](C)CC[C@@H]1[C@@]24OO3 | 4.83
6 | C[C@H]1[C@@H](CC(=O)N(CCNC(=O)OCC2c3ccccc3-c3ccccc32)CC(=O)NCCN(CC(=O)OC(C)(C)C)C(=O)C[C@H]2O[C@@H]3O[C@@]4(C)CC[C@H]5[C@H](C)CC[C@@H]([C@H]2C)[C@@]35OO4)O[C@@H]2O[C@@]3(C)CC[C@H]4[C@H](C)CC[C@@H]1[C@@]24OO3 | 5.54
7 | C[C@H]1[C@@H](CC(=O)N(CCNC(=O)[C@H](CCCCNC(=O)OC(C)(C)C)NC(=O)OCC2c3ccccc3-c3ccccc32)CC(=O)NCCN(CC(=O)OC(C)(C)C)C(=O)C[C@H]2O[C@@H]3O[C@@]4(C)CC[C@H]5[C@H](C)CC[C@@H]([C@H]2C)[C@@]35OO4)O[C@@H]2O[C@@]3(C)CC[C@H]4[C@H](C)CC[C@@H]1[C@@]24OO3 | 5.10
8 | C[C@H]1[C@@H](CC(=O)N(CCNC(=O)[C@H](CCCCN)NC(=O)OCC2c3ccccc3-c3ccccc32)CC(=O)NCCN(CC(=O)OC(C)(C)C)C(=O)C[C@H]2O[C@@H]3O[C@@]4(C)CC[C@H]5[C@H](C)CC[C@@H]([C@H]2C)[C@@]35OO4)O[C@@H]2O[C@@]3(C)CC[C@H]4[C@H](C)CC[C@@H]1[C@@]24OO3 | 5.69
9 | C[C@H]1[C@@H](O)O[C@@H]2O[C@@]3(C)CC[C@H]4[C@H](C)CC[C@@H]1[C@@]24OO3 [ARTENIMOL] | 4.57
